According to patent publication US20100273203A1 (priority 2009, published 2010):
Read-outs that look alike come from different tables or passages of the source.

Key:
CYP1A2 [1] = target: T1, CYP1A2 (Homo sapiens, UniProt P05177); test: biochemical
T1 sequence (P05177 1-516): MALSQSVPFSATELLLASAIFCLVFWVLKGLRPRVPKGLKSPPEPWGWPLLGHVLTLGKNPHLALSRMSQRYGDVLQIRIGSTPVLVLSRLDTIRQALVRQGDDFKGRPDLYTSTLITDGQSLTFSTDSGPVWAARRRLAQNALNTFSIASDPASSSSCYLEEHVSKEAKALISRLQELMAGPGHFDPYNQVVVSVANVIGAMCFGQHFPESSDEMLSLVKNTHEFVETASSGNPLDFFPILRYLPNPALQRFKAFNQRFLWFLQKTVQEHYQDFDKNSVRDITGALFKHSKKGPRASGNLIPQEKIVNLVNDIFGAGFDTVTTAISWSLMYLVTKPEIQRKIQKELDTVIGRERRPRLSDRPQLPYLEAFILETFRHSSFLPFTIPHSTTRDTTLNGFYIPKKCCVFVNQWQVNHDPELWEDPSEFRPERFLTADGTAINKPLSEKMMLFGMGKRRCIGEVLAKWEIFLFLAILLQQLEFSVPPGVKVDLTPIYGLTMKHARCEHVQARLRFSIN

[2] = LC-MS/MS urinary metabolic profile of patients receiving warfarin; settings: for % R / % S (proportion in (S)-enantiomeric form) / % conjugated (proportion glucuronidated) / urinary concentration: urine; for urinary concentration: free and conjugated
Text: All chemicals used in this study were of at least reagent grade. Unless otherwise specified, all chemicals and reagents were purchased from either Sigma-Aldrich (St. Louis, Mo.) or Thermo Fisher Scientific (Waltham, Mass.). […] Ethyl alcohol (100%) was purchased from AAPER (Shelbyville, Ky.). Re-combinant CYP2C9*1, CYP3A4, CYP1A2, and CYP2C19 were expressed in baculovirus-infected insect cells and purchased from BD Biosciences (San Jose, Calif.). Commercially available urine specimens from three females (F84, F85, and F87) were provided by the Emergency Response and Air Toxicants Branch, Division of Laboratory Science National Center for Environmental Health Centers for Disease Control and Prevention (DeKalb County, Ga.). Patient studies were conducted under IRB-approved protocols, and all patients signed informed consent documentation.
This analytical phase was accomplished by reverse-phase HPLC using a 4.6 mm×150 mm C18 Zorbax Eclipse 5 μm XDB-C18 column provided by Agilent (Santa Clara, Calif.). The operating temperature was 40° C., and the sample injection volume was 5.0 μL. HPLC mobile phases consisted H2O (0.1% acetic acid v/v) (A) and methanol (0.1% acetic acid v/v) (B). The flow rate was 1 mL/min. […] The total run time per sample was 10 min. Specific MS/MS experimental conditions used in this study are noted in Table 1.
To determine the relative abundance of the (R)-and (S)-enantiomers of each metabolite, a 4.6 mm×25 cm Chirobiotic V5 μm column supplied by Supelco (Bellefonte, Pa.) was incorporated during the second analytical phase. Mobile phases consisted of H2O (0.1% acetic acid v/v) (A) and acetonitrile (0.1% acetic acid v/v) (B) with a flow rate of 800 μL/min. Enantiomeric separations were accomplished under isocratic conditions (80% A and 20% B). The sample injection volume was 15.0 μL. Enantiomeric MS/MS analyses were performed in negative ion mode by electrospray ionization (ESI) using a Turbo IonSpray source. A total run time of 20 min was required for adequate resolution. Specific MS/MS experimental conditions used in this study are noted in the Table 2.
Each response was normalized to that of the internal standard, 7-hydroxycoumarin (10 μM). […] Measurements of these three metabolites were calculated by taking the difference of the amount measured in the first analytical phase, which contained both (R)-and (S) isomers from the amount of the (S)-isomer measured in the second analytical phase (eq 3). Glucuronidated metabolites were measured by incubating 250 μL of urine with 2000 units of GUS in 100 mM sodium acetate buffer, pH 5.0. The final volume for each of these reactions was 1 mL. Control reactions omitting GUS were included with each sample set. Reactions were incubated overnight at 37° C., after which they were stored at −80° C. Immediately before analysis, both samples were diluted with an equal volume of ethanol containing 7-hydroxycoumarin (10 μM final concentration). The difference between GUS-treated samples and controls represented the amount of glucuronidated metabolites present.

CYP2C9 [3] = target: T2, CYP2C9 (Homo sapiens, UniProt P11712); settings: read-out: reported Km; cited from earlier work
T2 sequence (P11712 whole entry): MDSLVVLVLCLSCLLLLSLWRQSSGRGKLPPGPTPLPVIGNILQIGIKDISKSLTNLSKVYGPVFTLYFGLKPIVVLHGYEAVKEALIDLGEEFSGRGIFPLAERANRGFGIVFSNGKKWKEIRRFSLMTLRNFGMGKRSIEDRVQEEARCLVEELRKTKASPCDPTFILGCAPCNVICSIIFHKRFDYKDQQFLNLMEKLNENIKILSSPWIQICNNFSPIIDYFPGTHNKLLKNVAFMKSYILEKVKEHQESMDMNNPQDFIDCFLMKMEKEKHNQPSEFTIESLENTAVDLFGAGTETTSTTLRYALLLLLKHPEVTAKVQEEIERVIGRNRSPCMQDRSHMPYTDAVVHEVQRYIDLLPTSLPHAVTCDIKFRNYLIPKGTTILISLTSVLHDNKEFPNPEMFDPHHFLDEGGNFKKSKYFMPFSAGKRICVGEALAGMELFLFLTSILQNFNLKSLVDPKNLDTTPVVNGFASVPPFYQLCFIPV

CYP1A2 [4] = target: T1, CYP1A2; settings: read-out: IC50 for CYP marker reaction; P450-Glo marker reaction
plasma proteins = settings: cited from earlier work
UGT1A10 = UGT1A10 (Homo sapiens, UniProt Q9HAW8); settings: glucuronidation; racemic OHWars
Chain of UGT1A10 (Q9HAW8 26-530): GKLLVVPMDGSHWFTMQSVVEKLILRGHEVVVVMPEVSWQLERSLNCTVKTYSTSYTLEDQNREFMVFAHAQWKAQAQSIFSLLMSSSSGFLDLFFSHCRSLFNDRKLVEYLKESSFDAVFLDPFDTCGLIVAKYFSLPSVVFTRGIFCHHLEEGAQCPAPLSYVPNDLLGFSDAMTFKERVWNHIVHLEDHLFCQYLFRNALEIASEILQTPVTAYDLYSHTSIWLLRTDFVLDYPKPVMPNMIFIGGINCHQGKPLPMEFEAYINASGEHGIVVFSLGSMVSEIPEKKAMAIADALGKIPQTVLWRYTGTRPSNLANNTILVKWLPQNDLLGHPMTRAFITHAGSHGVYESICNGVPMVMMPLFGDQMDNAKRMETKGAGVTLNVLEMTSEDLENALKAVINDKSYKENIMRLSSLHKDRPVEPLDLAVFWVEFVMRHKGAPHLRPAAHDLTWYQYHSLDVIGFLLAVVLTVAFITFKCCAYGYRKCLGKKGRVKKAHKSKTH
Text: (§1) The characterization of hepatic and extrahepatic glucuronidation may be made based on glucuronidation studies with 100 commercially available HLM and 100 intestinal microsomal preparations available in our laboratory. […] Both racemic mixtures and separated R and S enantiomers may be assayed. […] Activities of extrahepatic (UGT1A8 and UGT1A10) and hepatic (UGT1A1, UGT1A3, and UGT1A9) isoforms may be compared to that of their respective microsomal preparations, and assign the contribution of specific UGTs to product formation by the human samples.

UGT1A9 = UGT1A9 (Homo sapiens, UniProt O60656); settings: glucuronidation; racemic OHWars
Chain of UGT1A9 (O60656 26-530): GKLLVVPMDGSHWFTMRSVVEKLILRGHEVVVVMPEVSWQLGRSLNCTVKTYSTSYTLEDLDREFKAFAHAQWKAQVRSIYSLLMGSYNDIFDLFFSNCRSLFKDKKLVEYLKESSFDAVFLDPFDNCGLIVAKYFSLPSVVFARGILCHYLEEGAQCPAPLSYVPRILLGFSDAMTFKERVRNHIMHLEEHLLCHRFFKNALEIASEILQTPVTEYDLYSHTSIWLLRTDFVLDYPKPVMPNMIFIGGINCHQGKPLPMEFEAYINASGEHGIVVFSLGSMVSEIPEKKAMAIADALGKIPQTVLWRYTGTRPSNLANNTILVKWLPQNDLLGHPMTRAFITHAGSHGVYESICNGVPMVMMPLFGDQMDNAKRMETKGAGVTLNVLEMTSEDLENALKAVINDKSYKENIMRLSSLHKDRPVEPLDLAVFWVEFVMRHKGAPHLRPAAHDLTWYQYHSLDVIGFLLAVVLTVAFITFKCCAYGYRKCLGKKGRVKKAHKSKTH
Text: as §1

UGT1A8 = UGT1A8 (Homo sapiens, UniProt Q9HAW9); settings: glucuronidation; racemic OHWars
Chain of UGT1A8 (Q9HAW9 26-530): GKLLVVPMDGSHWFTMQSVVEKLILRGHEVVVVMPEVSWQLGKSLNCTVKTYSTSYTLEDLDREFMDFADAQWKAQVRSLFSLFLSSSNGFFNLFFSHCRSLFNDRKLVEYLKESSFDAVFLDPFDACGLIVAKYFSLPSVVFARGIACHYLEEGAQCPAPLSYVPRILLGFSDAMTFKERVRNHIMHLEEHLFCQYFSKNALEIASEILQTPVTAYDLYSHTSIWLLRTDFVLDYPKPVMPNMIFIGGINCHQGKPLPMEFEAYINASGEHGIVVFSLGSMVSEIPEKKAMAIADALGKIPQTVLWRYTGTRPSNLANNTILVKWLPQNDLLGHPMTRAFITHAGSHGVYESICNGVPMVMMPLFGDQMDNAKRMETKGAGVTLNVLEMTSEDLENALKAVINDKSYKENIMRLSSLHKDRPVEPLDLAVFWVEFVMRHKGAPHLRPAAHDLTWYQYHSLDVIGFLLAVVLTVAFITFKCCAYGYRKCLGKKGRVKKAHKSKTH
Text: as §1

CYP3A4 [5] = target: T3, CYP3A4 (Homo sapiens, UniProt P08684); settings: read-out: IC50 for CYP marker reaction; P450-Glo marker reaction
T3 sequence (P08684 whole entry): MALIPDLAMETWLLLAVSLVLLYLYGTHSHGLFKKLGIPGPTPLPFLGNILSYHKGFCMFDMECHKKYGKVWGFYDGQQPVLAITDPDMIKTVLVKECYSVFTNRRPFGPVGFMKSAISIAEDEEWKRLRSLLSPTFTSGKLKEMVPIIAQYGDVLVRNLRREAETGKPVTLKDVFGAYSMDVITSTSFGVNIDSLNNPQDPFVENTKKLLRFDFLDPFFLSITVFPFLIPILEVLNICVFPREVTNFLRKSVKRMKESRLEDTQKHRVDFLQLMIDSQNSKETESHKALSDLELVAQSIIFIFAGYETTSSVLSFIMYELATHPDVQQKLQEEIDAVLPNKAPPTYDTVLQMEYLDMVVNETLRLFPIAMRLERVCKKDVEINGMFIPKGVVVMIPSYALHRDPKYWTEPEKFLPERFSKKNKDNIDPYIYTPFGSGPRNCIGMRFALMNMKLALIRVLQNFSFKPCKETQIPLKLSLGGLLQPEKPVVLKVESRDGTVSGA

CYP2C9*1 [6] = target: T4, CYP2C9*1 (Homo sapiens, UniProt P11712); settings: S-warfarin metabolism, 7-hydroxywarfarin formation as marker
Protocol: (§2) For each hydroxywarfarin, at least 4 independent experimental replicates were performed.
(§3) MS/MS experimental conditions was used as described previously (6).
(§4) The most probable inhibition mechanism for recombinant CYP2C9 and human liver microsome reactions was identified using DynaFit ver. 3.28 (Biokin, Ltd) (20). Data from each set of hydroxywarfarin experiments were fit to traditional reversible inhibition mechanisms (competitive, uncompetitive, noncompetitive, or mixed). The respective kinetic parameters (Ki and Ki′) were set as variables, while the kinetic parameters (Vmax and Km) were constants based on values obtained from uninhibited reactions. The most probable mechanism was then identified using the Akaike Information Criterion (AICc) for model discrimination (21).

[7] = target: CYP2C9 present in the human liver microsomes (Homo sapiens, UniProt P11712); settings: S-warfarin metabolism; 7-hydroxywarfarin formation as marker
Chain of CYP2C9 present in the human liver microsomes (P11712 whole entry): as the sequence (P11712 whole entry) above
Protocol: as §2, §3, §4

CYP2C9 [8] = target: T2, CYP2C9; settings: read-out: IC50 toward recombinant CYP2C9 activity; P450-Glo, 50 μM Luciferin H; racemic compounds
Protocol: Hydroxywarfarins were screened for inhibitory potential toward recombinant CYP2C9 using the Promega (Madison, Wis.) CY2C9 P450-Glo™ Assay using the manufacturer's protocol. These IC50 studies were analyzed on a PerkinElmer Victor^3V™ 1420 Multilabel Counter. Recombinant CYP2C9, 50 nM, was incubated with 50 μM Luciferin H, and six concentrations of each hydroxywarfarin from approximately 10 nM to 4 mM final concentration, as optimized for each compound. The appropriate volume of hydroxywarfarin stocks in 100% ethanol were added to each well prior to addition of the substrate and enzyme, and the ethanol was allowed to evaporate at room temperature to minimize solvent effects on CYP2C9 activity. A final DMSO concentration of 1% was present in the reactions due to the P450-Glo Luciferin H. The reaction was initiated upon addition of an NADPH regenerating solution (BD Biosciences) and quenched with a luciferase quench (Promega) at 30 min.

CYP2C9*1 [9] = target: T4, CYP2C9*1; settings: read-out: IC50 for CYP marker reaction; P450-Glo marker reaction
CYP3A7 = CYP3A7 (Homo sapiens, UniProt P24462); test: Steady-state metabolism of R- and S-warfarin by recombinant CYP3A7
Chain of CYP3A7 (P24462 whole entry): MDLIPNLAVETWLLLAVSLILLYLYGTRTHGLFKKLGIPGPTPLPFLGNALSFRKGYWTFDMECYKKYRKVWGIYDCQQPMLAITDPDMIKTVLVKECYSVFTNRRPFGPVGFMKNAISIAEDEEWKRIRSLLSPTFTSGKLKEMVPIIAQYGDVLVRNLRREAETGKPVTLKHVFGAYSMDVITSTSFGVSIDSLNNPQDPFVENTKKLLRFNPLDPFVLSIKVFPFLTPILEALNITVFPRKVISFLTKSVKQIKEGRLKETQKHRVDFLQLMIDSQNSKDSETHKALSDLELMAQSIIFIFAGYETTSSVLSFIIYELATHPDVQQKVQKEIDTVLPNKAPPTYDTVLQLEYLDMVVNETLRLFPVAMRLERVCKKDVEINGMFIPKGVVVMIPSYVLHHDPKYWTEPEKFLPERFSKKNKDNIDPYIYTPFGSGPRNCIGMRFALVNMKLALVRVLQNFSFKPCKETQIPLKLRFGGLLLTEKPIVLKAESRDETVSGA
Protocol: (§5) Reactions were initiated upon addition of an NADPH regenerating system [2 μU μL-1 glucose 6-phosphate dehydrogenase, 10 mM glucose 6-phosphate, 2 mM MgCl2, 1 mM NADP^+]. […] The quenched reactions were centrifuged and the resulting supernatant containing substrate and products resolved and quantified by UPLC-MS/MS. Each experiment was performed in at least 4 independent experimental replicates.
(§6) The flow rate was constant at 250 μL/min. […] Electrospray conditions were as follows: spray voltage of 4500 V, sheath gas pressure 45, auxiliary gas pressure 20, and collision energy of 15-15 eV (compound specific).
(§7) Final metabolite concentrations were calculated from the ratio of metabolite area to internal standard area in the sample and compared to calibration curves as determined from the UPLC-MS/MS method. All compounds were quantified relative to authentic standards. The resulting kinetic data were analyzed with GraphPad Prism 5® software. Non-linear regression analysis was used to fit steady-state data to the Michaelis-Menten equation to determine the Vmax and Km parameters.

CYP3A4 [10] = target: T3, CYP3A4; test: Steady-state metabolism of R- and S-warfarin by recombinant CYP3A4
Protocol: as §5, §6, §7

CYP2C9 [11] = target: T2, CYP2C9; settings: not metabolized by CYP2C9; cited from earlier work
[12] = 10-hydroxywarfarin formation, 37° C, pH 7.4

CC(=O)CC(c1ccccc1)c1c(O)c2ccccc2oc1=O (racemic) [WAR, warfarin]
IC50 (CYP1A2 [1]): 740 µM | individual concentrations in urine ([2]; female, human, in vivo): 10 to 200 nM | Km (CYP2C9 [3]): 2600 nM

CC(=O)CC(c1ccccc1)c1c(O)c2cccc(O)c2oc1=O (stereo not shown) [8-OH-WAR, 8-hydroxywarfarin]
IC50 (CYP1A2 [4]): 830 µM | plasma protein binding affinity relative to warfarin (plasma proteins): three- to four-fold lower affinity | Km (UGT1A10): 383 ± 81 µM | Vmax (UGT1A10): 25 ± 2 nmol/mg protein/min | Km (UGT1A9): 107 ± 36 µM | Vmax (UGT1A9): 1.7 ± 0.1 nmol/mg protein/min | Km (UGT1A8): 206 ± 70 µM | Vmax (UGT1A8): 1.5 ± 0.1 nmol/mg protein/min | IC50 (CYP3A4 [5]): 240 µM | Ki (CYP2C9*1 [6]): 21 µM | Mechanism of inhibition (CYP2C9*1 [6]): Mixed | Ki (CYP2C9*1 [6]; mixed inhibition): 103 µM | Ki [7]: 13 µM | Mechanism of inhibition [7]: Competitive | IC50 (CYP2C9 [8]): 16 µM | IC50 (CYP2C9*1 [9]): 17.2 µM | % R ([2]; patient F84): 100% | % S (proportion in (S)-enantiomeric form) ([2]; patient F84): 0% | % conjugated (proportion glucuronidated) ([2]; patient F84): 31% | urinary concentration ([2]; patient F84): 111 nM | % R ([2]; patient F85): 98% | % S (proportion in (S)-enantiomeric form) ([2]; patient F85): 2% | % conjugated (proportion glucuronidated) ([2]; patient F85): 53% | urinary concentration ([2]; patient F85): 109 nM | % R ([2]; patient F87): 69% | % S (proportion in (S)-enantiomeric form) ([2]; patient F87): 31% | % conjugated (proportion glucuronidated) ([2]; patient F87): 7% | urinary concentration ([2]; patient F87): 231 nM

CC(=O)C[C@H](c1ccccc1)c1c(O)c2ccccc2oc1=O [R-warfarin, (R) warfarin]
Km (CYP3A7; 4′-hydroxywarfarin formation): 1390 µM | Vmax (CYP3A7; 4′-hydroxywarfarin formation): 260 pmol product/min/nmol P450 | Km (CYP3A7; 10-hydroxywarfarin formation): 54 µM | Vmax (CYP3A7; [12]): 116 pmol product/min/nmol P450 | Km (CYP3A4 [10]; 4′-hydroxywarfarin formation): 36 µM | Vmax (CYP3A4 [10]; 4′-hydroxywarfarin formation): 98 pmol product/min/nmol P450 | Km (CYP3A4 [10]; 10-hydroxywarfarin formation): 16 µM | Vmax (CYP3A4 [10]; [12]): 1055 pmol product/min/nmol P450 | Ki (CYP2C9 [11]): ~8 µM
